Experimental data as given in patent US9579314B2 (priority 2015, dated 2017).

How the values were obtained:
Human M3 receptor = Human M3 receptor (Homo sapiens, UniProt P20309); conditions: read-out: M3 binding affinity
Human β2 adrenoceptor = Human β2 adrenoceptor (Homo sapiens, UniProt P07550); conditions: read-out: B2 binding affinity
Sequence of Human β2 adrenoceptor (P07550 whole entry): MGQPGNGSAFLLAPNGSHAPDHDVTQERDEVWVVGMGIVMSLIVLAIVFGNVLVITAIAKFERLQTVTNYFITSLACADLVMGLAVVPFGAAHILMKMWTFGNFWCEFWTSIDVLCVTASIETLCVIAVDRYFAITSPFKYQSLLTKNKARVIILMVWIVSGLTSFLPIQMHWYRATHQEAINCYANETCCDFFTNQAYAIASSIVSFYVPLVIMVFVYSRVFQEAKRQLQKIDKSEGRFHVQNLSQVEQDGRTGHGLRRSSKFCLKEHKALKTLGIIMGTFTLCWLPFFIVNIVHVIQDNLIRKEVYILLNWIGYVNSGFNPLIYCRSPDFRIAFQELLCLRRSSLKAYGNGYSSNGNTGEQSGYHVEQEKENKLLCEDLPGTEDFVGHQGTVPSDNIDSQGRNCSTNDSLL

Sequence of Human M3 receptor (P20309 whole entry): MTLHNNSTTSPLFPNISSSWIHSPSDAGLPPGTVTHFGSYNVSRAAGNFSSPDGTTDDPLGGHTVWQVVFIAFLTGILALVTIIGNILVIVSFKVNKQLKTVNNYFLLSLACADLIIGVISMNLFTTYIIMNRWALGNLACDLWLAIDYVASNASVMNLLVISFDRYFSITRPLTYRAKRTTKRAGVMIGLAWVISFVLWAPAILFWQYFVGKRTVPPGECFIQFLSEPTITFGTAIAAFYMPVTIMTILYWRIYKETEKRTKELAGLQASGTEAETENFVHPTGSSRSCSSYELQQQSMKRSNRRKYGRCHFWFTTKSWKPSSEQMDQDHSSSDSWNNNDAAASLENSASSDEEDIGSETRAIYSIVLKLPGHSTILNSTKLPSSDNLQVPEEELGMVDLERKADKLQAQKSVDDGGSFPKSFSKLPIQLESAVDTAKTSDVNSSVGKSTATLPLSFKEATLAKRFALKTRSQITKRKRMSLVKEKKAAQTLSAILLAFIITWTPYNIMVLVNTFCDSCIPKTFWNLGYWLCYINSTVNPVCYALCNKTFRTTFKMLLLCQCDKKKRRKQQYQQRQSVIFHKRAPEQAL

Compound | IC50 (Human M3 receptor) | IC50 (Human β2 adrenoceptor)
O=C(N[C@H]1CCN(C(=O)COc2cccc([C@](O)(C(=O)OCC3CCN(Cc4ccccc4)CC3)c3ccccc3)c2)C1)c1ccc(CCNC[C@H](O)c2ccc(O)c3[nH]c(=O)ccc23)cc1 [Compound 109, (1-benzylpiperidin-4-yl)methyl (S)-2-hydroxy-2-(3-(2-((S)-3-(4-(2-(((R)-2-hydroxy-2-(8-hydroxy-2-oxo-1,2-dihydroquinolin-5-yl)ethyl)amino)ethyl)benzamido)pyrrolidin-1-yl)-2-oxoethoxy)phenyl)-2-phenylacetate] | 300 to 3000 pM | 300 to 3000 pM
O=C(N[C@@H]1CCN(C(=O)COc2cccc([C@](O)(C(=O)OCC3CCN(Cc4ccccc4)CC3)c3ccccc3)c2)C1)c1ccc(CCNC[C@H](O)c2ccc(O)c3[nH]c(=O)ccc23)cc1 [Compound 110, (1-benzylpiperidin-4-yl)methyl (S)-2-hydroxy-2-(3-(2-((R)-3-(4-(2-(((R)-2-hydroxy-2-(8-hydroxy-2-oxo-1,2-dihydroquinolin-5-yl)ethyl)amino)ethyl)benzamido)pyrrolidin-1-yl)-2-oxoethoxy)phenyl)-2-phenylacetate] | 300 to 3000 pM | 300 to 3000 pM
O=C(COc1cccc([C@](O)(C(=O)OCC2CCN(Cc3ccccc3)CC2)c2ccccc2)c1)N1C[C@H]2CCN(C(=O)c3ccc(CCNC[C@H](O)c4ccc(O)c5[nH]c(=O)ccc45)cc3)[C@H]2C1 [Compound 111, (1-benzylpiperidin-4-yl)methyl (S)-2-hydroxy-2-(3-(2-((3aR,6aR)-1-(4-(2-(((R)-2-hydroxy-2-(8-hydroxy-2-oxo-1,2-dihydroquinolin-5-yl)ethyl)amino)ethyl)benzoyl)hexahydropyrrolo[3,4-b]pyrrol-5(1H)-yl)-2-oxoethoxy)phenyl)-2-phenylacetate] | 300 to 3000 pM | 300 to 3000 pM
O=C(COc1cccc([C@](O)(C(=O)OCC2CCN(Cc3ccccc3)CC2)c2ccccc2)c1)N1C[C@@H]2CCN(C(=O)c3ccc(CCNC[C@H](O)c4ccc(O)c5[nH]c(=O)ccc45)cc3)[C@@H]2C1 [Compound 112, (1-benzylpiperidin-4-yl)methyl (S)-2-hydroxy-2-(3-(2-((3aS,6aS)-1-(4-(2-(((R)-2-hydroxy-2-(8-hydroxy-2-oxo-1,2-dihydroquinolin-5-yl)ethyl)amino)ethyl)benzoyl)hexahydropyrrolo[3,4-b]pyrrol-5(1H)-yl)-2-oxoethoxy)phenyl)-2-phenylacetate] | 300 to 3000 pM | < 300 pM
O=C(N[C@@H]1CCCN(C(=O)COc2cccc([C@](O)(C(=O)OCC3CCN(Cc4ccccc4)CC3)c3ccccc3)c2)C1)c1ccc(CCNC[C@H](O)c2ccc(O)c3[nH]c(=O)ccc23)cc1 [Compound 113, (1-benzylpiperidin-4-yl)methyl (S)-2-hydroxy-2-(3-(2-((R)-3-(4-(2-(((R)-2-hydroxy-2-(8-hydroxy-2-oxo-1,2-dihydroquinolin-5-yl)ethyl)amino)ethyl)benzamido)piperidin-1-yl)-2-oxoethoxy)phenyl)-2-phenylacetate] | 300 to 3000 pM | 300 to 3000 pM
O=C(N[C@H]1C[C@H](NC(=O)c2ccc(COc3cccc([C@](O)(C(=O)OCC4CCN(Cc5ccccc5)CC4)c4ccccc4)c3)cc2)C1)c1ccc(CCNC[C@H](O)c2ccc(O)c3[nH]c(=O)ccc23)cc1 [Compound 114, (1-Benzylpiperidin-4-yl)methyl (S)-2-hydroxy-2-(3-((4-(((1R,3S)-3-(4-(2-(((R)-2-hydroxy-2-(8-hydroxy-2-oxo-1,2-dihydroquinolin-5-yl)ethyl)amino)-ethyl)benzamido)cyclobutyl)carbamoyl)benzyl)oxy)phenyl)-2-phenylacetate] | 300 to 3000 pM | 300 to 3000 pM
O=C(c1ccc(CCNC[C@H](O)c2ccc(O)c3[nH]c(=O)ccc23)cc1)N1CCC2(CC1)CCN(C(=O)c1ccc(COc3cccc([C@](O)(C(=O)OCC4CCN(Cc5ccccc5)CC4)c4ccccc4)c3)cc1)CC2 [Compound 115, (1-benzylpiperidin-4-yl)methyl (S)-2-hydroxy-2-(3-((4-(9-(4-(2-(((R)-2-hydroxy-2-(8-hydroxy-2-oxo-1,2-dihydroquinolin-5-yl)ethyl)amino)ethyl)benzoyl)-3,9-diazaspiro[5.5]undecane-3-carbonyl)benzyl)oxy)phenyl)-2-phenylacetate] | 300 to 3000 pM | 300 to 3000 pM
O=C(c1ccc(CCNC[C@H](O)c2ccc(O)c3[nH]c(=O)ccc23)cc1)N1CC2(C1)CN(C(=O)c1ccc(COc3cccc([C@](O)(C(=O)OCC4CCN(Cc5ccccc5)CC4)c4ccccc4)c3)cc1)C2 [Compound 116, (1-benzylpiperidin-4-yl)methyl (S)-2-hydroxy-2-(3-((4-(6-(4-(2-(((R)-2-hydroxy-2-(8-hydroxy-2-oxo-1,2-dihydroquinolin-5-yl)ethyl)amino)ethyl)benzoyl)-2,6-diazaspiro[3.3]heptane-2-carbonyl)benzyl)oxy)phenyl)-2-phenylacetate] | 300 to 3000 pM | < 300 pM
O=C(c1ccc(CCNC[C@H](O)c2ccc(O)c3[nH]c(=O)ccc23)cc1)N1CCC2(CC1)CN(C(=O)c1ccc(COc3cccc([C@](O)(C(=O)OCC4CCN(Cc5ccccc5)CC4)c4ccccc4)c3)cc1)C2 [Compound 117, (1-benzylpiperidin-4-yl)methyl (S)-2-hydroxy-2-(3-((4-(7-(4-(2-(((R)-2-hydroxy-2-(8-hydroxy-2-oxo-1,2-dihydroquinolin-5-yl)ethyl)amino)ethyl)benzoyl)-2,7-diazaspiro[3.5]nonane-2-carbonyl)benzyl)oxy)phenyl)-2-phenylacetate] | 300 to 3000 pM | < 300 pM
O=C(c1ccc(CCNC[C@H](O)c2ccc(O)c3[nH]c(=O)ccc23)cc1)N1CCN(C(=O)c2ccc(COc3cccc([C@](O)(C(=O)OCC4CCN(Cc5ccccc5)CC4)c4ccccc4)c3)cc2)CC1 [Compound 118, (1-benzylpiperidin-4-yl)methyl (S)-2-hydroxy-2-(3-((4-(4-(4-(2-(((R)-2-hydroxy-2-(8-hydroxy-2-oxo-1,2-dihydroquinolin-5-yl)ethyl)amino)ethyl)benzoyl)piperazine-1-carbonyl)benzyl)oxy)phenyl)-2-phenylacetate] | < 300 pM | 300 to 3000 pM
O=C(c1ccc(COc2cccc([C@](O)(C(=O)OCC3CCN(Cc4ccccc4)CC3)c3ccccc3)c2)cc1)N1CCC2(CC1)CN(C(=O)c1ccc(CCNC[C@H](O)c3ccc(O)c4[nH]c(=O)ccc34)cc1)C2 [Compound 119, (1-benzylpiperidin-4-yl)methyl (S)-2-hydroxy-2-(3-((4-(2-(4-(2-(((R)-2-hydroxy-2-(8-hydroxy-2-oxo-1,2-dihydroquinolin-5-yl)ethyl)amino)ethyl)benzoyl)-2,7-diazaspiro[3.5]nonane-7-carbonyl)benzyl)oxy)phenyl)-2-phenylacetate] | < 300 pM | 300 to 3000 pM
O=C(c1ccc(CCNC[C@H](O)c2ccc(O)c3[nH]c(=O)ccc23)cc1)N1CCCC2(C1)CN(C(=O)c1ccc(COc3cccc([C@](O)(C(=O)OCC4CCN(Cc5ccccc5)CC4)c4ccccc4)c3)cc1)C2 [Compound 120, (1-benzylpiperidin-4-yl)methyl (S)-2-hydroxy-2-(3-((4-(6-(4-(2-(((R)-2-hydroxy-2-(8-hydroxy-2-oxo-1,2-dihydroquinolin-5-yl)ethyl)amino)ethyl)benzoyl)-2,6-diazaspiro[3.5]nonane-2-carbonyl)benzyl)oxy)phenyl)-2-phenylacetate] | < 300 pM | < 300 pM
O=C(c1ccc(CCNC[C@H](O)c2ccc(O)c3[nH]c(=O)ccc23)cc1)N1CCC2(CC1)CN(C(=O)c1ccc(COc3cccc([C@](O)(C(=O)OCC4CCN(Cc5ccccc5)CC4)c4ccccc4)c3)cc1)CCO2 [Compound 121, (1-benzylpiperidin-4-yl)methyl (S)-2-hydroxy-2-(3-((4-(9-(4-(2-(((R)-2-hydroxy-2-(8-hydroxy-2-oxo-1,2-dihydroquinolin-5-yl)ethyl)amino)ethyl)benzoyl)-1-oxa-4,9-diazaspiro[5.5]undecane-4-carbonyl)benzyl)oxy)phenyl)-2-phenylacetate] | < 300 pM | < 300 pM
O=C(c1ccc(CCNC[C@H](O)c2ccc(O)c3[nH]c(=O)ccc23)cc1)N1CCC2(CCCN(C(=O)c3ccc(COc4cccc([C@](O)(C(=O)OCC5CCN(Cc6ccccc6)CC5)c5ccccc5)c4)cc3)C2)CC1 [Compound 122, (1-benzylpiperidin-4-yl)methyl (S)-2-hydroxy-2-(3-((4-(9-(4-(2-(((R)-2-hydroxy-2-(8-hydroxy-2-oxo-1,2-dihydroquinolin-5-yl)ethyl)amino)ethyl)benzoyl)-2,9-diazaspiro[5.5]undecane-2-carbonyl)benzyl)oxy)phenyl)-2-phenylacetate] | 300 to 3000 pM | > 3000 pM
O=C(N[C@H]1C[C@H](NC(=O)c2ccc(COc3cccc([C@](O)(C(=O)OCC4CCN(Cc5ccccc5)CC4)c4ccccc4)c3)cc2)C1)c1ccc(CNC[C@H](O)c2ccc(O)c3[nH]c(=O)ccc23)cc1 [Compound 123, (1-benzylpiperidin-4-yl)methyl (S)-2-hydroxy-2-(3-((4-(((1R,3S)-3-(4-((((R)-2-hydroxy-2-(8-hydroxy-2-oxo-1,2-dihydroquinolin-5-yl)ethyl)amino)methyl)benzamido)cyclobutyl)carbamoyl)benzyl)oxy)phenyl)-2-phenylacetate] | 300 to 3000 pM | 300 to 3000 pM
COc1cc(C(=O)N[C@H]2C[C@H](NC(=O)c3ccc(COc4cccc([C@](O)(C(=O)OCC5CCN(Cc6ccccc6)CC5)c5ccccc5)c4)cc3)C2)ccc1CNC[C@H](O)c1ccc(O)c2[nH]c(=O)ccc12 [Compound 124, (1-benzylpiperidin-4-yl)methyl (S)-2-hydroxy-2-(3-((4-(((1R,3S)-3-(4-((((R)-2-hydroxy-2-(8-hydroxy-2-oxo-1,2-dihydroquinolin-5-yl)ethyl)amino)methyl)-3-methoxybenzamido)cyclobutyl)carbamoyl)benzyl)oxy)phenyl)-2-phenylacetate] | 300 to 3000 pM | 300 to 3000 pM
